Laboratory results reported in ChEMBL document CHEMBL3994663, “Iminosugar-based ceramide mimicry for the design of new CERT START domain ligands” (Bioorg Med Chem, 2017).

Biological target: T1, Ceramide transfer protein (Homo sapiens) (UniProt Q9Y5P4)
T1 sequence (whole entry): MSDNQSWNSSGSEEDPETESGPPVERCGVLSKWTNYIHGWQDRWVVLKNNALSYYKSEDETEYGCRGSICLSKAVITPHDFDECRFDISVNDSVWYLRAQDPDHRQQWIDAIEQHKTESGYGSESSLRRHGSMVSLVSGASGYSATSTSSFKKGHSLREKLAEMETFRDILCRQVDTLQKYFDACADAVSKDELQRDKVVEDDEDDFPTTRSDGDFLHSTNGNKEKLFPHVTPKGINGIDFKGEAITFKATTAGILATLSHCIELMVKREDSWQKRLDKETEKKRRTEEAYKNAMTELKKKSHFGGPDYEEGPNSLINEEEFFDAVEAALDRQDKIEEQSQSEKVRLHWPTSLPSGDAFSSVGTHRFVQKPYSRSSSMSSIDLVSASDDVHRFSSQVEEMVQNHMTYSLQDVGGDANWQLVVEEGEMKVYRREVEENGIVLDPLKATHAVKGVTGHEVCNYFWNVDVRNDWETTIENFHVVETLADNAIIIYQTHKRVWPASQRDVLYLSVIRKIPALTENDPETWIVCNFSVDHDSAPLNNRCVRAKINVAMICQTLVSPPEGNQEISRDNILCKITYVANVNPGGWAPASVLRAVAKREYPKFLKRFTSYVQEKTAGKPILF
Experiment: Inhibition of fluorescent ceramide probe binding to recombinant His-tagged START domain of CERT (unknown origin) assessed as bound fluorescent ceramide probe level at 200 pmol preincubated for 30 mins followed by ceramide probe addition after 30 mins by FLINT assay (reference value: 28.4 +/- 2.75%)
Set-up: scale not given: the % may be the effect or the level left

Activity [%] | SMILES
51.1 | CCCCCCCCCCCCO[C@H]1CNC[C@@H](OCCCCCCCCCCCC)[C@@H]1O
48 | CCCCCCCCCCCCN1C[C@@H](O)[C@H](O)[C@@H](O)C1
36.6 | O[C@H]1[C@H](O)CNC[C@@H]1O
25.5 | CCCCCCCCCCCC(=O)N[C@@H](CO)C[C@H](O)c1ccccc1
61.3 | CCCCCCCCCCCCO[C@@H]1CNC[C@@H](O)[C@@H]1O
30.1 | CCCCCCCCCCCCO[C@H]1CN(CCCCCCCCCCCC)C[C@@H](O)[C@@H]1O
41 | CCCCCCCCCCCCO[C@H]1CNC[C@@H](O)[C@@H]1O
54.3 | CCCCCCCCCCCCO[C@@H]1CN(CCCCCCCCCCCC)C[C@@H](O)[C@@H]1O
